Test results published in paper PMC7827406, “Structure–Activity Relationship (SAR) Study of Spautin-1 to Entail the Discovery of Novel NEK4 Inhibitors” (International Journal of Molecular Sciences, 2021).
Read-outs that look alike come from different tables or passages of the source.

Tests used:
Assay in all cases: biochemical
Set-up in all cases: Eurofins KinaseProfiler full panel at Km ATP, residual kinase activity (%) relative to DMSO
ALK6(h) = target: T1, ALK6(h) (Homo sapiens, UniProt O00238)
T1 construct: gene BMPR1B
T1 sequence (O00238 whole entry): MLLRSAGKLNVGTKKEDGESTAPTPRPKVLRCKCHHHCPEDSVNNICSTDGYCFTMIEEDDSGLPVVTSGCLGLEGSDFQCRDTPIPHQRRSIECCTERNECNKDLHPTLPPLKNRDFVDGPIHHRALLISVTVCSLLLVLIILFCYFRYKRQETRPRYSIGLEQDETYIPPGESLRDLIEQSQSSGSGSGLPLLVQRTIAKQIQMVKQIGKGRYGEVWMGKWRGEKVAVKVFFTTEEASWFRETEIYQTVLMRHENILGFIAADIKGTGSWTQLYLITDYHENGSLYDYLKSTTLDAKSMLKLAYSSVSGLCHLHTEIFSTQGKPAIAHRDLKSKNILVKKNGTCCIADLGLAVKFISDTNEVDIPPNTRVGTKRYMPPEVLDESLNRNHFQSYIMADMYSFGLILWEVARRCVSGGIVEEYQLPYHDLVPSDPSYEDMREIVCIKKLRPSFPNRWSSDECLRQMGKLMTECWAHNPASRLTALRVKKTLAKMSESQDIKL
Experimental: (§1) Eurofins performed a “Full KP Panel [Km ATP], KinaseProfile” which contains 429 radiometric kinase activity assays. The remaining kinase activity (%) was determined after treatment with the compounds at a concentration of 10 µM (Cfr. supporting information). Since we could not confirm the interaction between Spautin-1 analogues and USP13, a kinase screening was performed using a set of four compounds (Spautin-1 and three analogues) to discover off-targets and identify kinases that are potentially responsible for the reduction in cell viability observed in our screen (Table 2). The KINOMEscan from Eurofins was performed (see Table S1). This screen consists of a competitive binding assay in which the DNA-tagged kinase is incubated with one of the compounds in the presence of immobilized active site binding ligands. Binding of the compounds to the kinase hampers the binding of the kinase to the ligands and this inhibition was quantified by qPCR. The residual kinase activity, which represents the percentage of kinase attached to the immobilized ligands, was determined for 428 kinases at a standard screening concentration of 10 µM of the compounds dissolved in DMSO [61].

CDK16/cyclinY(h) = CDK16/cyclinY(h) (Homo sapiens, UniProt Q00536)
Chain of CDK16/cyclinY(h) (Q00536 whole entry): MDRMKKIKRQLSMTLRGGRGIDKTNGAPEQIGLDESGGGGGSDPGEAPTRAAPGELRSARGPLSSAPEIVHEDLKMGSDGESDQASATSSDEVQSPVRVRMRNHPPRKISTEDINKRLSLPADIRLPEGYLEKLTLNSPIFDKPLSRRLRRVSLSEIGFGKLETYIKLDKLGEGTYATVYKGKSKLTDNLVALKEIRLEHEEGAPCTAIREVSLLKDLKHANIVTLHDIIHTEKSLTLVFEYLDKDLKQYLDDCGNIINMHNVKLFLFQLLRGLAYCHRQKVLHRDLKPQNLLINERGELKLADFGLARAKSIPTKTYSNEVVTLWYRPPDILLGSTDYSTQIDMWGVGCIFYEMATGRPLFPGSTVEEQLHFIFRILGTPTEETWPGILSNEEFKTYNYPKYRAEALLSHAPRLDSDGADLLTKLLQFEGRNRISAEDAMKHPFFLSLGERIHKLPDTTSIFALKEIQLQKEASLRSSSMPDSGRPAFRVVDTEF
Chain of CDK16/cyclinY(h) (Q8ND76 whole entry partner): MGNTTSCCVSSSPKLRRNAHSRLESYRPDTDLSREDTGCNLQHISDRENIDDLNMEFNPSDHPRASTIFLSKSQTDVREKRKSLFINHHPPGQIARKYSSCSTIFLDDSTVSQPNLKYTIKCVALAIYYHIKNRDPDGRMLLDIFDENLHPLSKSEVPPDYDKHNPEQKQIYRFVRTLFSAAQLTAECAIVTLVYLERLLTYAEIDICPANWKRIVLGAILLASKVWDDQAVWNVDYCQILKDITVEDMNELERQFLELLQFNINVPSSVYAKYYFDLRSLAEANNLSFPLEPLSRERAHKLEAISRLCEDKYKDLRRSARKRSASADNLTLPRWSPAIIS
Experimental: as §1

DAPK1(h) = DAPK1(h) (Homo sapiens, UniProt P53355)
Chain of DAPK1(h) (P53355 whole entry): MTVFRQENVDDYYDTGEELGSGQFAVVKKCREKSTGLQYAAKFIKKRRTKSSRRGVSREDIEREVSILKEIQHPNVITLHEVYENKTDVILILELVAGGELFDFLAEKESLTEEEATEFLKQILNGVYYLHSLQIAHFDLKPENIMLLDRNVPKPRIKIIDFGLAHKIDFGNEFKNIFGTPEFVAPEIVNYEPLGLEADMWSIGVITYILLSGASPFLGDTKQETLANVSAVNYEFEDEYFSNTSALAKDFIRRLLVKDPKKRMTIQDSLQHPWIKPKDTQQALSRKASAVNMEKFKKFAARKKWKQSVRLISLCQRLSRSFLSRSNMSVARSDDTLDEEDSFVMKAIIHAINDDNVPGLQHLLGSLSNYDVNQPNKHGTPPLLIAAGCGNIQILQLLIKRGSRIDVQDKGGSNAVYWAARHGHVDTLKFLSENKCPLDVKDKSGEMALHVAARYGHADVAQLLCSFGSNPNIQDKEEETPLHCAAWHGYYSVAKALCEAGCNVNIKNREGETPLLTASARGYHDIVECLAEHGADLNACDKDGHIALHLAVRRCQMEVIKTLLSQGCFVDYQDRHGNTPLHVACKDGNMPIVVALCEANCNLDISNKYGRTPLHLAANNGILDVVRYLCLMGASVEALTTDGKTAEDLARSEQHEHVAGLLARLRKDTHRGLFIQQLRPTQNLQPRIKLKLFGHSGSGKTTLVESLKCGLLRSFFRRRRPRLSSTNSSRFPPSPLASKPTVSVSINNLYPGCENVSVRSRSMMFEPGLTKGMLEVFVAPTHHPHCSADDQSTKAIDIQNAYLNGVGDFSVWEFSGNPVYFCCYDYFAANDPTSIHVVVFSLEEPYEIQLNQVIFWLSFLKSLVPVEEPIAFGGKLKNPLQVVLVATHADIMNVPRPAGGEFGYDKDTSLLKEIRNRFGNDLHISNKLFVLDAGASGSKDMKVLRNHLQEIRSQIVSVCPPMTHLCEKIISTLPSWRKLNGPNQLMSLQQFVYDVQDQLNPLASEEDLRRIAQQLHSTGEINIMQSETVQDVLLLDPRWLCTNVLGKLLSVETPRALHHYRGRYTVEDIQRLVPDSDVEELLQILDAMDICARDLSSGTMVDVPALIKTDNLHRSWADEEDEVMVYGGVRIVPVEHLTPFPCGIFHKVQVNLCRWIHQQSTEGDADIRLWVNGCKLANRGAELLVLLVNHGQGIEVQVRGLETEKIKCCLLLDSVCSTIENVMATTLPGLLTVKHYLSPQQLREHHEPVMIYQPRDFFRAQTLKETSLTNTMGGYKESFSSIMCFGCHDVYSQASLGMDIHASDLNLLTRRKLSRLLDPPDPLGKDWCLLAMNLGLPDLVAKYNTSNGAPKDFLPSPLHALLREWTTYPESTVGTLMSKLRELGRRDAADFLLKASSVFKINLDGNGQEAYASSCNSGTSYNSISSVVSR
Experimental: as §1

MRCKα(h) = target: T2, MRCKα(h) (Homo sapiens, UniProt Q5VT25)
T2 construct: gene CDC42BPA
Experimental: as §1

Met(h) = Met(h) (Homo sapiens, UniProt P08581)
Experimental: as §1

[1] = target: T3, PI3 Kinase (p110a(E542K)/p85a)(h) (Homo sapiens, UniProt P42336, E542K)
T3 construct: gene PIK3CA
T3 sequence (P42336 whole entry E542K): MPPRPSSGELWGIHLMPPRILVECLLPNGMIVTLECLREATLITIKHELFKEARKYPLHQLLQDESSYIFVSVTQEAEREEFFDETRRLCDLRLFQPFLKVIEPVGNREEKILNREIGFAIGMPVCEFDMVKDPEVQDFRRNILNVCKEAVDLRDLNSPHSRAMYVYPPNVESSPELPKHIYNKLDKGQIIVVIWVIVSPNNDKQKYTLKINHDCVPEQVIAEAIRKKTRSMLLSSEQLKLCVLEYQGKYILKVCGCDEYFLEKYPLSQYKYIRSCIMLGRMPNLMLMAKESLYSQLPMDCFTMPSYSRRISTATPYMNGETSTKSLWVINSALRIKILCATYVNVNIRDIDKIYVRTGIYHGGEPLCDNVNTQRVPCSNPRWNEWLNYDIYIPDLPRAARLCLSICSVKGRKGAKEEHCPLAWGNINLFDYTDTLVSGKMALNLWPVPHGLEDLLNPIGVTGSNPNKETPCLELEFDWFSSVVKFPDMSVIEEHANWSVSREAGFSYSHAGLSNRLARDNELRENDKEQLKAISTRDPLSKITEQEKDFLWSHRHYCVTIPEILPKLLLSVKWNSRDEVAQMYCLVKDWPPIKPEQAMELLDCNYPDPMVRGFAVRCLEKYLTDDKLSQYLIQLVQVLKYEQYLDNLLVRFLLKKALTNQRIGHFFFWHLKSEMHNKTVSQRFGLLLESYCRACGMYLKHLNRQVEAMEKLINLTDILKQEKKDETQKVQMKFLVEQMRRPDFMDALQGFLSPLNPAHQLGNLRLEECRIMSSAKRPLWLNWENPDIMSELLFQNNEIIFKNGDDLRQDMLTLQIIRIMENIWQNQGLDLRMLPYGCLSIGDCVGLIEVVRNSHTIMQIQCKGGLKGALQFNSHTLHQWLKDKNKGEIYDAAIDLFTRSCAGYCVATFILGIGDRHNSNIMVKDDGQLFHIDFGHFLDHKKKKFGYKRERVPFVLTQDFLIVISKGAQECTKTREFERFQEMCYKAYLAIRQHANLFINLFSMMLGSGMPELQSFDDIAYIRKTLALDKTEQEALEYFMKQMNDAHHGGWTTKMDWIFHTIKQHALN
T3 sequence (P27986 whole entry partner): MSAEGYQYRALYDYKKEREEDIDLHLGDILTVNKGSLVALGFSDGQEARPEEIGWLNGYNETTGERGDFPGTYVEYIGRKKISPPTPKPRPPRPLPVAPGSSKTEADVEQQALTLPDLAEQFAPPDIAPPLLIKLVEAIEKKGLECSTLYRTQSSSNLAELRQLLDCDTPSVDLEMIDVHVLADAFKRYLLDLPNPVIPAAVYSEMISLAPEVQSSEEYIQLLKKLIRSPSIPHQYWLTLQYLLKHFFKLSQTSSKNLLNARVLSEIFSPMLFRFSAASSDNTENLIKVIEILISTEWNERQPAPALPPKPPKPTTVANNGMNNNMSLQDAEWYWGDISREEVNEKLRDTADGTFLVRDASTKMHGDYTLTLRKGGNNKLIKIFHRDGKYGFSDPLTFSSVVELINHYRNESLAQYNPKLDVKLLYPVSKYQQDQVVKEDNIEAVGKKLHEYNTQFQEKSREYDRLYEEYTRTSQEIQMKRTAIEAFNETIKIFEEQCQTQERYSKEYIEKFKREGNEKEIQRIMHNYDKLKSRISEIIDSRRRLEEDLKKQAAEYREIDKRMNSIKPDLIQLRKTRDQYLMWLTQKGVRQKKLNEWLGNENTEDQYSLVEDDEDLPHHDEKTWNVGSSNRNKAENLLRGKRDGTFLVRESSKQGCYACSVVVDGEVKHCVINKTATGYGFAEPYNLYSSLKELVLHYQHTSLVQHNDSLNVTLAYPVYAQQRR
Experimental: as §1

PKCθ(h) = target: T4, PKCθ(h) (Homo sapiens, UniProt Q04759)
T4 construct: gene PRKCQ
Experimental: as §1

Plk4(h) = target: T5, Plk4(h) (Homo sapiens, UniProt O00444)
T5 sequence (O00444 1-970): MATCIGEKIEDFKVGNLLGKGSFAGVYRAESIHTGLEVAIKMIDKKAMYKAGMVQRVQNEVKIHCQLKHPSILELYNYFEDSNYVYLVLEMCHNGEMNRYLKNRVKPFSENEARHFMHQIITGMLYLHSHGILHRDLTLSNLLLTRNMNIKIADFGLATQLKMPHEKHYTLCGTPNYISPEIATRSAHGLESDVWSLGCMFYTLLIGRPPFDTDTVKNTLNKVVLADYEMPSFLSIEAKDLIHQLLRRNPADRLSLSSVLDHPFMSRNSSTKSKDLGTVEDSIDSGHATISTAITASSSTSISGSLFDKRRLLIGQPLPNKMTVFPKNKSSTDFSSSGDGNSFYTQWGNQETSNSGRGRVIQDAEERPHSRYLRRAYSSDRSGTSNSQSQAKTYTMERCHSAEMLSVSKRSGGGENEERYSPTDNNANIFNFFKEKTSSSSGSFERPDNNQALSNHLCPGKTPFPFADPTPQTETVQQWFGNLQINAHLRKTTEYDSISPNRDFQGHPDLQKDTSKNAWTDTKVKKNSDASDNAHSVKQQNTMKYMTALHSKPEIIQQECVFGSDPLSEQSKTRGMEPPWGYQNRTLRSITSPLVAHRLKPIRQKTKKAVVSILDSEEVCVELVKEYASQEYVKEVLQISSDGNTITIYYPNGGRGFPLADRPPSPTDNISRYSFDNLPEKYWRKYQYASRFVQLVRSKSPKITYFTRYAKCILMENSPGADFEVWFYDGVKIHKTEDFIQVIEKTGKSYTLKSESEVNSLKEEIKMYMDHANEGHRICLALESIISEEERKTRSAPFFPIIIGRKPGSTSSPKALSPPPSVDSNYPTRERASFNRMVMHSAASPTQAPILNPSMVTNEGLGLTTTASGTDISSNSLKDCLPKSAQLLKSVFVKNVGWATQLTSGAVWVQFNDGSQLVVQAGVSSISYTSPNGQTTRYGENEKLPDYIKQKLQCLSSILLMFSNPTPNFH
Experimental: as §1

[2] = read-out: Residual activity (%) Spautin-1 5aa
[3] = read-out: Residual activity (%) 5as
[4] = read-out: Residual activity (%) 5at
[5] = read-out: Residual activity (%) 5ay

For `Fc1ccc(CNc2ncnc3ccc(F)cc23)cc1` [5aa, 6-Fluoro-N-(4-fluorobenzyl)-4-Quinazolinamine], the remaining activity at 10 µM (ALK6(h); [2]) was 94%, the remaining activity at 10 µM (CDK16/cyclinY(h); [2]) was 90% and the remaining activity at 10 µM (DAPK1(h); [2]) was 102%. It also gave a remaining activity at 10 µM (MRCKα(h); [2]) of 91%, a remaining activity at 10 µM (Met(h); [2]) of 82% and a remaining activity at 10 µM [1, 2] of 94%. It also gave a remaining activity at 10 µM (PKCθ(h); [2]) of 80% and a remaining activity at 10 µM (Plk4(h); [2]) of 91%.

`Fc1ccc(CCNc2ncnc3ccc(F)cc23)cc1` [5as, 6-Fluoro-N-[2-(4-Fluorophenyl)Ethyl]-4-Quinazolinamine] gave a remaining activity at 10 µM (ALK6(h); [3]) of 86%, a remaining activity at 10 µM (CDK16/cyclinY(h); [3]) of 114% and a remaining activity at 10 µM (DAPK1(h); [3]) of 90%. It also gave a remaining activity at 10 µM (MRCKα(h); [3]) of 93%, a remaining activity at 10 µM (Met(h); [3]) of 57% and a remaining activity at 10 µM [1, 3] of 91%. It also gave a remaining activity at 10 µM (PKCθ(h); [3]) of 100% and a remaining activity at 10 µM (Plk4(h); [3]) of 80%.

In the case of `Fc1ccc2ncnc(NCCc3ccc(Cl)cc3)c2c1` [5at, N-[2-(4-Chlorophenyl)Ethyl]-6-Fluoro-4-Quinazolinamine], the remaining activity at 10 µM (ALK6(h); [4]) is reported as 92%, the remaining activity at 10 µM (CDK16/cyclinY(h); [4]) is reported as 104% and the remaining activity at 10 µM (DAPK1(h); [4]) is reported as 89%. The remaining activity at 10 µM (MRCKα(h); [4]) was 98%, the remaining activity at 10 µM (Met(h); [4]) was 112% and the remaining activity at 10 µM [1, 4] was 93%. It also gave a remaining activity at 10 µM (PKCθ(h); [4]) of 90% and a remaining activity at 10 µM (Plk4(h); [4]) of 78%.

`COc1ccc2ncnc(Nc3cccc(F)c3)c2c1` [5ay, N-(3-Fluorophenyl)-6-Methoxy-4-Quinazolinamine] gave a remaining activity at 10 µM (ALK6(h); [5]) of 87%, a remaining activity at 10 µM (CDK16/cyclinY(h); [5]) of 81% and a remaining activity at 10 µM (DAPK1(h); [5]) of 95%. The remaining activity at 10 µM (MRCKα(h); [5]) was 87%, the remaining activity at 10 µM (Met(h); [5]) was 72% and the remaining activity at 10 µM [1, 5] was 88%. For the same compound, the remaining activity at 10 µM (PKCθ(h); [5]) was 117% and the remaining activity at 10 µM (Plk4(h); [5]) was 87%.
